Patent publication US10745414B2, “Crystal salt form of 2,2-dimethyl-6-((4-((3,4,5-trimethoxyphenyl)amino)-1,3,5-triazine-2-yl)amino)-2H-pyrido[3,2-b][1,4]oxazine-3(4H)-one for human use” (LIMITED “MOLECULAR TECHNOLOGIES”, priority 2016, dated 2020)
Each block holds one compound with its values, some of them ahead of it.

Legend:
[1] = pharmacokinetics in blood plasma after oral administration in Wistar rats; settings: Wistar, rat, in vivo, po, 30 mg/kg
Method: At the first stage, pharmacokinetics of the Compound 1 free base was studied after oral administration in Wistar rats at dosage of 30 mg/kg.
Pharmacokinetics of several Compound 1 salt forms was studied after oral administration in Wistar rats at a dose of 37 mg/kg (30 mg/kg equivalent to a free base).

mature human osteoclasts = assay: osteoclast-mediated resorption of mineralized matrix; format: cell-based
Method: The study was carried out following the method below: CD15+ monocytes (osteoclast precursor cells) were cultivated for 3 days in a proliferation medium (Igla α-modified minimum essential medium/fetal calf serum (aMEM/FCS), 10% with 25 ng/ml of macrophage colony-stimulating factor (M-CSF)). During this stage M-CSF promoted proliferation and expression of a receptor activator of nuclear factor KB (RANK, cappa-B, type I membrane protein). The proliferation medium was removed and cells were differentiated in a differentiation medium (aMEM/FCS-10% with 100 ng/ml of RANKL and 25 ng/ml of M-CSF). When mature osteoclasts were detected in the culture (day 4 of the study), the cells were collected and re-inoculated into a 96-well plate coated with a synthetic mineralized matrix. Cultivation continued for 48 hours (at presence of the studied compounds) to evaluate osteoclast resorption. Then number of mature osteoclasts and the resorption degree were evaluated. An effect of 4-methylbenzenesulfonic acid and Compound 1 salt concentration on concentration and resorption degree of mature osteoclasts was evaluated in comparison with control samples ([…] control, 0.3% DMSO solvent) and reference inhibitors, i.e., saracatinib and bosutinib (see FIG. 18).

[2] = solubility of the primary base in selected organic solvents; format: physicochemical; settings: organic solvent or mixture, thermodynamic from solid
Method: At the first stage solubility of the primary base in the selected organic solvents was studied. Maximum volume of a solvent for this study was selected as 10 ml per 100 mg of the base taking into consideration the subsequent process scaling.

[3] = pKa of protonated pyridine nitrogen; format: physicochemical; settings: protonated nitrogen atom of pyridine
Description: To obtain a form having optimal biological and physical properties, various salt forms of the Compound 1 was synthesized. A primary goal of the salt form optimization was to obtain a Compound 1 salt form having the following properties: crystallinity, composition stability, therapeutic efficacy, safety, ease of production process scalability, using a pharmacologically acceptable counterion (preferably anion), and using low toxicity organic solvents. The salt forms of Compound 1 were obtained with organic solutions of high polarity and low toxicity (Class 3). The counterions were used based on pharmacological acceptance and high acid strength (pKa not exceeding 3.25). The requirement for the high acid strength is conditioned by the fact that a protonated nitrogen atom of pyridine of the Compound 1 is a weak base having pKa 4.

[4] = molecular target: human recombinant tyrosine c-Src kinase (Homo sapiens, UniProt P12931); assay: human kinase enzymatic activity in vitro (33P-ATP, peptide substrate); format: biochemical
Method: (§1) The Compound 1 effect on the human recombinant tyrosine c-Src kinase was measured as follows: a peptide substrate was dissolved in a reaction buffer ad 0.2 mg/ml concentration. A solution of recombinant c-Src kinase was added to 2 nM concentration and the studied compound to the required concentration (within the range of 1 nM to 10 μM) was added. A solution of ^33P-ATP was added to 10 μM concentration (final specific activity of the solution is 0.01 μCi). After 120 minutes of incubation, the reaction mixture was applied on ion-exchange paper, which was rinsed with a plenty of phosphoric acid. A reaction extent was determined based on radioactivity of the reaction products.

[5] = test system: Sprague-Dawley rat models of osteoarthritis induced by intra-articular introduction of sodium iodoacetate; assay: mechanical allodynia test with von Frey filaments in osteoarthritis induced by sodium iodoacetate; format: in vivo
Method: The intra-articular introduction of aerobic glycolysis inhibitor (sodium iodoacetate) results in death of chondrocytes and acute inflammatory reaction in a synovial cavity. In absence of treatment, at day 10 from the pathology induction an onset of chronic pain is observed due to cartilage destruction and development of chronic inflammation in particular cases [J Musculoskel Neuron Interact 2001; 1(4):363-376]. Extent of osteoarthritis development in rats was evaluated by comparison of extremity pain sensitivity threshold after the introduction of sodium iodoacetate versus background measurements taken before the pathology induction. The threshold of the pain sensitivity was evaluated by mechanical allodynia test using von Frey filaments (see Table 8).
For the purposes of the study, rat males weighing 150 to 200 g were selected. All the animals underwent acclimatization for 14 days. The animals were housed in a polycarbonate cages of 3H type manufactured by Charles River laboratories Inc according to COST R 53434-2009. 12-hours lighting regimen was maintained. The animals had access to food and water ad libitum. The pathology was induced by introduction of 50 μl solution containing 2 mg of sodium iodoacetate into a synovial cavity of the animal knee joints. Tactile allodynia induced by a mechanical irritation was evaluated using von Frey filaments weighing 0.06 to 23.96 g. The test was repeated five times for each filament at intervals of 1 to 2 s. The sensitivity threshold was considered as a minimum reaction threshold provoking paw withdrawal in one of five repeats.

[6] = test system: chondrocytes from knee joint cartilage of young rats; assay: IL-1β-induced hypertrophic changes in chondrocytes (aggrecan expression); format: cell-based, rats (Sprague Dawley)
Method: The study was carried out following the method below: chondrocytes were isolated from a knee joint cartilage of young rats (aged 3 weeks, Sprague Dawley line). The isolated chondrocytes in a cultural medium (Dulbecco's modified Igla minimum essential medium/fetal calf serum (DMEM/FCS), 10%, 4-(2-hydroxyethyl)-1-piperazine ethanesulfonic acid (HEPES), 25 mM) was stored frozen at −80° C. The obtained chondrocytes were unfrozen a day before the experiment, inoculated into 12-well plates and cultured as a monolayer during 24 hours. After 24 hours of incubation IL-1β-induced activation of chondrocytes and treatment with the studied compounds was started and continued for 3 days.

[7] = pharmacokinetics in blood plasma after oral administration in Wistar rats; settings: rat, in vivo, 21 mg/kg
Yes = Yes (Homo sapiens, UniProt P07947); assay: human kinase enzymatic activity in vitro; format: biochemical; settings: 0.5 μmol/l
Src-kinase family = assay: human kinase enzymatic activity in vitro; format: biochemical; settings: 0.5 μmol/l
Method: as §1

Lyn = Lyn (Homo sapiens, UniProt P07948); assay: human kinase enzymatic activity in vitro; format: biochemical; settings: 0.5 μmol/l
Frk = Frk (Homo sapiens, UniProt P42685); assay: human kinase enzymatic activity in vitro; format: biochemical; settings: 0.5 μmol/l
Fyn = Fyn (Homo sapiens, UniProt P06241); assay: human kinase enzymatic activity in vitro; format: biochemical; settings: 0.5 μmol/l
Lck = Lck (Homo sapiens, UniProt P06239); assay: human kinase enzymatic activity in vitro; format: biochemical; settings: 0.5 μmol/l
Blk = Blk (Homo sapiens, UniProt P51451); assay: human kinase enzymatic activity in vitro; format: biochemical; settings: 0.5 μmol/l
Syk kinase = Syk kinase (Homo sapiens, UniProt P43405); assay: human kinase enzymatic activity in vitro; format: biochemical
Fgr = Fgr (Homo sapiens, UniProt P09769); assay: human kinase enzymatic activity in vitro; format: biochemical; settings: 0.5 μmol/l
Hck = Hck (Homo sapiens, UniProt P08631); assay: human kinase enzymatic activity in vitro; format: biochemical; settings: 0.5 μmol/l
[8] = further clinical trials, daily exposure of a therapeutically effective dose; cited from earlier work

human recombinant tyrosine c-Src kinase, sequence (P12931 whole entry): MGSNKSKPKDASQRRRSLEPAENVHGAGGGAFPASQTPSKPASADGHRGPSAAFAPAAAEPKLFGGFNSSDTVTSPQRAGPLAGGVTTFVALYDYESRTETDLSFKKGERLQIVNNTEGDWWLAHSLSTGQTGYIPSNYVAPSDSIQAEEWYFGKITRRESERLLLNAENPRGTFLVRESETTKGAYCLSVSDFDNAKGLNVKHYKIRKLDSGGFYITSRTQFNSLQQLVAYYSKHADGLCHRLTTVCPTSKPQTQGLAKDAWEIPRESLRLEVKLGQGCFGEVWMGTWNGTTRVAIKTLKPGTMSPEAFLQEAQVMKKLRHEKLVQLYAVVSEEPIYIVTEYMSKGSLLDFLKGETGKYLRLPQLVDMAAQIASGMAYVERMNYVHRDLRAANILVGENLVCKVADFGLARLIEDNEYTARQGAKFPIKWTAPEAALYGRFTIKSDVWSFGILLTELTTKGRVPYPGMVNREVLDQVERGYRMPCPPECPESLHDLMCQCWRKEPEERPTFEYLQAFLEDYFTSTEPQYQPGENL
Yes, sequence (P07947 whole entry): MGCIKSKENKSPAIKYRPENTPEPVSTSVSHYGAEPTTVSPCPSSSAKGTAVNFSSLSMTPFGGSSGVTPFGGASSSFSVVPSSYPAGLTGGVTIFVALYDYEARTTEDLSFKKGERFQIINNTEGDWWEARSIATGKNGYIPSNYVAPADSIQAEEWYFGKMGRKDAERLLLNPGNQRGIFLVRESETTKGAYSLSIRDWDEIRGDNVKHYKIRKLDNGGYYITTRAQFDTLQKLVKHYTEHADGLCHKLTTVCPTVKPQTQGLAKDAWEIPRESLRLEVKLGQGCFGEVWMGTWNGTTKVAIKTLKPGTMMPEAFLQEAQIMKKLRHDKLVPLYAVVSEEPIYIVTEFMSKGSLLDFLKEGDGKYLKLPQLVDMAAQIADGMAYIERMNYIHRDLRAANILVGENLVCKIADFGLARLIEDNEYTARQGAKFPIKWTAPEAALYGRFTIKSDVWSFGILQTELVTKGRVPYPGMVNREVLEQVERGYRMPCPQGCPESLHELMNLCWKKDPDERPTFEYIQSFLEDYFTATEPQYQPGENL
Blk, sequence (P51451 whole entry): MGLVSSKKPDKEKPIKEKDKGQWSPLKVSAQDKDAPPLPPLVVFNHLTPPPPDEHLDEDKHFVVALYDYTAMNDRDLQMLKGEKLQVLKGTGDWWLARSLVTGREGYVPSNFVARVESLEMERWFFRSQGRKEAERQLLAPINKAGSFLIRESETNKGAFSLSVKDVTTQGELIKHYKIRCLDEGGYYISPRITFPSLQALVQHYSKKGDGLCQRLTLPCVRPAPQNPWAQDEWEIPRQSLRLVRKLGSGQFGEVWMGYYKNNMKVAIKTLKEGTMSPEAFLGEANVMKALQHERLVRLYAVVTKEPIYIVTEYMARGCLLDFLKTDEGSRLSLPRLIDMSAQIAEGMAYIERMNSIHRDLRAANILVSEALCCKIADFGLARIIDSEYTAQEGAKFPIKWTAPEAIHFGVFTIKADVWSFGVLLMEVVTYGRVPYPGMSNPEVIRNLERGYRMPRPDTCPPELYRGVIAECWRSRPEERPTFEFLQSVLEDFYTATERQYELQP
Fgr, sequence (P09769 whole entry): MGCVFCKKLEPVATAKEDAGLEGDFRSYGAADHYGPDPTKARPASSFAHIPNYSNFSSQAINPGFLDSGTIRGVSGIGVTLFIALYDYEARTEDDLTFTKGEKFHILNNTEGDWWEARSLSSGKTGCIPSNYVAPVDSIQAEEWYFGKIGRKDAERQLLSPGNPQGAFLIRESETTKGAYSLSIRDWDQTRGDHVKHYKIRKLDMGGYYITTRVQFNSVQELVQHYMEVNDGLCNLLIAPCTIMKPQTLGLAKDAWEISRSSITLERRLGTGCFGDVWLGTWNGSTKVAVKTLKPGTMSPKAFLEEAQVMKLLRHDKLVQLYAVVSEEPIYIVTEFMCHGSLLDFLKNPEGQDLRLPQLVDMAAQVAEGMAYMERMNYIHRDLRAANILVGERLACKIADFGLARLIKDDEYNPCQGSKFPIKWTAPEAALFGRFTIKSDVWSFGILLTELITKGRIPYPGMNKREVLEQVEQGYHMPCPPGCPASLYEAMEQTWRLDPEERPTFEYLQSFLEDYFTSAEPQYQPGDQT
Lyn, sequence (P07948 whole entry): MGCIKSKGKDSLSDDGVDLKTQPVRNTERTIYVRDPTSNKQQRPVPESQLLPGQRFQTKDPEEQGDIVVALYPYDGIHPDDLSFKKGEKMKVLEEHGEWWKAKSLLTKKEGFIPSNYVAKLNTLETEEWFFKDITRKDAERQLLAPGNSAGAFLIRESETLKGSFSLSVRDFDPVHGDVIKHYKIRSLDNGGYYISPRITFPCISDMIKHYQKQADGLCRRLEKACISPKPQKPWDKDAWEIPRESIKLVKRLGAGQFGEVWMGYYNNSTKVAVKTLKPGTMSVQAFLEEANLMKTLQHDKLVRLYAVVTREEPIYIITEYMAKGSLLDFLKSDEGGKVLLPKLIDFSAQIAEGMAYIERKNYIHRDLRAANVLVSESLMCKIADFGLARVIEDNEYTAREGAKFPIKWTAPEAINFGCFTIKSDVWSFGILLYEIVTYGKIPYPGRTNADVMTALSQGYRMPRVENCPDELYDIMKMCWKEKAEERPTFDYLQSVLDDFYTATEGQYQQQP
Lck, sequence (P06239 whole entry): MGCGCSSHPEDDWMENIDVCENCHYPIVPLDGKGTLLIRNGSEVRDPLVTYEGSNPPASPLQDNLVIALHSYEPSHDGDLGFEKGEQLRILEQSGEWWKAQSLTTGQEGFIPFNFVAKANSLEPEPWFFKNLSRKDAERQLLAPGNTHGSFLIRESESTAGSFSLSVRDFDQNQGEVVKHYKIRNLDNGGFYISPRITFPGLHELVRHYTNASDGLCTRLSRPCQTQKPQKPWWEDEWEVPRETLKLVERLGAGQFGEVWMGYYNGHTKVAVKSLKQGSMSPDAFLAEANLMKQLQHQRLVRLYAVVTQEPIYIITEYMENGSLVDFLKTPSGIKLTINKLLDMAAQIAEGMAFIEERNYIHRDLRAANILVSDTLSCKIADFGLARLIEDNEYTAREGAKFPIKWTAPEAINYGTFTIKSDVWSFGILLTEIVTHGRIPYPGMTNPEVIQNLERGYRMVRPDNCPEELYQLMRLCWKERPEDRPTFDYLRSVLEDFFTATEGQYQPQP
Hck, sequence (P08631 whole entry): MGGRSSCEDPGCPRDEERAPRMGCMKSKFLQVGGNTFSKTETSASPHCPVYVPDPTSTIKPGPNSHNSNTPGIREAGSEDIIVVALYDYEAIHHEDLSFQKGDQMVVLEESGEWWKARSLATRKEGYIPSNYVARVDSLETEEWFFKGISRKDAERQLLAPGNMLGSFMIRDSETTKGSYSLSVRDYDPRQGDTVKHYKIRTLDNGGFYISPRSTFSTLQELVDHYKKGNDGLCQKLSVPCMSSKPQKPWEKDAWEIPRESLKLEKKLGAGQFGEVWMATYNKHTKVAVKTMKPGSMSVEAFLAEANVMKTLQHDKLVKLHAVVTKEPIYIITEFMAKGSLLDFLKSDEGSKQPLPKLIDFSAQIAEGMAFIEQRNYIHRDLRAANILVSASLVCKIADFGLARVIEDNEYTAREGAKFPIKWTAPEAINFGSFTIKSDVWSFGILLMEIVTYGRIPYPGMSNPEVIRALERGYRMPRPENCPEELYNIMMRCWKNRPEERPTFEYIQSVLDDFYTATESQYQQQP
Fyn, sequence (P06241 whole entry): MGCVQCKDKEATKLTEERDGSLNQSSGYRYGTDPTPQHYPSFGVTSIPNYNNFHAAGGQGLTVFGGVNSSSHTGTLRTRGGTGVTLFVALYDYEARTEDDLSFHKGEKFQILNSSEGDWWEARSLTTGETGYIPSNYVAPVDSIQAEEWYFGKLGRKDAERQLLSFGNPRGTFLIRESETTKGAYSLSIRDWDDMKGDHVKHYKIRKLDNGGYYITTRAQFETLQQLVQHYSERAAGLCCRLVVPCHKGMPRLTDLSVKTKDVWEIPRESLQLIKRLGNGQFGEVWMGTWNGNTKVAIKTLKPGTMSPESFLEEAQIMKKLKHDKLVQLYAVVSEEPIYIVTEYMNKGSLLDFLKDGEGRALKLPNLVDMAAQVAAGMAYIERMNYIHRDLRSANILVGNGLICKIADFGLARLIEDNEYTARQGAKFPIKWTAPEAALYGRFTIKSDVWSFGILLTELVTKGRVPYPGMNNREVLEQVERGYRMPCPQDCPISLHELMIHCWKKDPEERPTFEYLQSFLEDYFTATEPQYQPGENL
Frk, sequence (P42685 whole entry): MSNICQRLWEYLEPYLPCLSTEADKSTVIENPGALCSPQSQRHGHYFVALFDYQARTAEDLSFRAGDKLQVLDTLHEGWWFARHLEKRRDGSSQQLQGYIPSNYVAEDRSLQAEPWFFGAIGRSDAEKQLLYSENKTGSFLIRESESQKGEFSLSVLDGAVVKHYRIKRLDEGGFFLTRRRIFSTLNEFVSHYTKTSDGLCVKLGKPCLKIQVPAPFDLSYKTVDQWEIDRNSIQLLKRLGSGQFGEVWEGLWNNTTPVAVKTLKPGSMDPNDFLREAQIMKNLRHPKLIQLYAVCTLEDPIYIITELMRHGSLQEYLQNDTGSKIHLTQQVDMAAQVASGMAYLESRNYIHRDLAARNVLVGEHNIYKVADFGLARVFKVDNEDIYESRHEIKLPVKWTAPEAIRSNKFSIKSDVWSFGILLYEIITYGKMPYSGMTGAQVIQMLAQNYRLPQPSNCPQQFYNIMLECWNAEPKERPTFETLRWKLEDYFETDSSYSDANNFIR

AUC0-t [1]: 55 ng·h/mL | AUC(0-inf) [1]: 73 ng·h/mL | Cmax [1]: 4.12 ng/mL | Tmax [1]: 4 h | Vz(/F) [1]: 6,982.6 l/kg | average daily concentration of the substance [1]: 4.8 nmol/L | half-life [1]: 11.8 h | maximum concentration of the substance in plasma [1]: 9.1 nmol/L | maximum plasma concentration relative to minimum effective concentration [1]: 100 times lower | solubility ([2]; 1,4-Dioxane, 106 mg base in 7 ml, 100 °C (code S-1-4-D)): > 10000 µg/mL | solubility ([2]; Acetone, 97 mg base in 10 ml, 56 °C (code S-1-5-A1)): < 10000 µg/mL | solubility ([2]; Ethanol, 98 mg base in 10 ml, 78 °C (code S-1-2-C2)): < 10000 µg/mL | solubility ([2]; THF, 103 mg base in 10 ml, 66 °C (code S-1-3-T)): < 10000 µg/mL | solubility ([2]; n-Butanol, 101 mg base in 10 ml, 117 °C (code S-1-1-B)): < 10000 µg/mL | pKa [3]: 4 | half-maximal inhibitory concentration ([4]; human c-Src kinase): within a nanomolar range
Compound: COc1cc(Nc2ncnc(Nc3ccc4c(n3)NC(=O)C(C)(C)O4)n2)cc(OC)c1OC [Compound 1, 2,2-dimethyl-6-((4-((3,4,5-trimethoxyphenyl)amino)-1,3,5-triazine-2-yl)amino)-2H-pyrido[3,2-b][1,4]oxazine-3(4H)-one]
effect on osteoclast-mediated resorption of the mineralized matrix (mature human osteoclasts; 48 hours cultivation): dose-dependent inhibitory effect | effective concentration (mature human osteoclasts; studies of Compound 1 biological activity): about 1 μmol/l

Compound: COc1ccc2cc([C@H](C)C(=O)O)ccc2c1 [Naproxen, reference compound]
Reaction threshold value, % of control ([5]; 50 mg/kg intragastric, days 14, 21, 28, day 14): 82 % of control | Reaction threshold value, % of control ([5]; 50 mg/kg intragastric, days 14, 21, 28, day 21): 102 % of control | Reaction threshold value, % of control ([5]; 50 mg/kg intragastric, days 14, 21, 28, day 28): 96 % of control

Compound: O=P(O)(O)C(O)(Cn1ccnc1)P(=O)(O)O [Zoledronic acid, reference compound]
Reaction threshold value, % of control ([5]; 0.1 mg/kg subcutaneously, days 0, 3, 6, 9, 12, 15, 18, 21, 24, 27, day 14): 98 % of control | Reaction threshold value, % of control ([5]; 0.1 mg/kg subcutaneously, days 0, 3, 6, 9, 12, 15, 18, 21, 24, 27, day 21): 108 % of control | Reaction threshold value, % of control ([5]; 0.1 mg/kg subcutaneously, days 0, 3, 6, 9, 12, 15, 18, 21, 24, 27, day 28): 118 % of control

Compound: COc1cc(Nc2ncnc(Nc3ccc4c(n3)NC(=O)C(C)(C)O4)n2)cc(OC)c1OC.Cc1ccc(S(=O)(=O)O)cc1.O [salt monohydrate of 4-methylbenzenesulfonic acid and 2,2-dimethyl-6-((4-((3,4,5-trimethoxyphenyl)amino)-1,3,5-triazine-2-yl)amino)-2H-pyrido[3,2-1,4]oxazine-3(4H)-one Base (Polymorphic Modification B)]
effect on osteoclast-mediated resorption of the mineralized matrix (mature human osteoclasts; concentrations from 1.0 μM): statistically significant dose-dependent inhibitory effect

AUC0-t [7]: 2,339 ng · h/ml | AUC0-∞ [7]: 2,418 ng · h/ml | T1/2 [7]: 5.0 h | Tmax [7]: 1.5 h
Compound: COc1cc(Nc2ncnc(Nc3ccc4c(n3)NC(=O)C(C)(C)O4)n2)cc(OC)c1OC.Cc1ccc(S(=O)(=O)O)cc1.O [salt monohydrate of 4-methylbenzenesulfonic acid and 2,2-dimethyl-6-((4-((3,4,5-trimethoxyphenyl)amino)-1,3,5-triazine-2-yl)amino)-2H-pyrido[3,2-b][1,4]oxazine-3(4H)-one Base (Polymorphic Modification A)]
effect on IL-1β-induced hypertrophic changes in chondrocytes (increase in aggrecan expression) ([6]; treatment for 3 days): statistically significant positive effect

inhibition at 0.5 µM (Yes): > 50% | remaining activity at 0.5 µM (Yes; read-out: residual activity): 12% | residual Src-kinase family activity (Src-kinase family): ≤ 25 % of control values | inhibition at 0.5 µM (Lyn): > 50% | remaining activity at 0.5 µM (Lyn; read-out: residual activity): 13% | inhibition at 0.5 µM (Frk): > 50% | inhibition at 0.5 µM (Fyn): > 50% | remaining activity at 0.5 µM (Fyn; read-out: residual activity): 25% | inhibition at 0.5 µM (Lck): > 50% | remaining activity at 0.5 µM (Lck; read-out: residual activity): 12% | inhibition at 0.5 µM (Blk): > 50% | remaining activity at 0.5 µM (Blk; read-out: residual activity): 20% | IC50 (Syk kinase): 40 nM | inhibition at 0.5 µM (Syk kinase; 0.5 μmol/l): > 50% | inhibition at 0.5 µM (Fgr): > 50% | remaining activity at 0.5 µM (Fgr; read-out: residual activity): 23% | inhibition at 0.5 µM (Hck): > 50% | remaining activity at 0.5 µM (Hck; read-out: residual activity): 25% | IC50 [4]: 14 nM | inhibition at 0.5 µM ([4]; 0.5 μmol/l): > 50% | remaining activity at 0.5 µM ([4]; 0.5 μmol/l, read-out: residual activity): 6%
Compound: COc1cc(Nc2ncnc(Nc3ccc4c(n3)NC(=O)C(C)(C)O4)n2)cc(OC)c1OC.Cc1ccc(S(=O)(=O)O)cc1 [salt of 4-methylbenzenesulfonic acid and 2,2-dimethyl-6-((4-((3,4,5-trimethoxyphenyl)amino)-1,3,5-triazine-2-yl)amino)-2H-pyrido[3,2-b][1,4]oxazine-3(4H)-one base]
increase of aggrecan production ([6]; induced hypertrophic changes in chondrocytes): more than four-time increase

Compound: CN1CCN(CCOc2cc(OC3CCOCC3)c3c(Nc4c(Cl)ccc5c4OCO5)ncnc3c2)CC1 [saracatinib]
toxicity [8]: high toxicity
